pIC50: −log10 of the molar value. One block for each compound: values may come before it.
Experiments:
[1] = biological target: T1, Dual specificity protein kinase TTK (Homo sapiens, UniProt P33981); assay: Inhibition of MPS1 (unknown origin)
T1 sequence (P33981 whole entry): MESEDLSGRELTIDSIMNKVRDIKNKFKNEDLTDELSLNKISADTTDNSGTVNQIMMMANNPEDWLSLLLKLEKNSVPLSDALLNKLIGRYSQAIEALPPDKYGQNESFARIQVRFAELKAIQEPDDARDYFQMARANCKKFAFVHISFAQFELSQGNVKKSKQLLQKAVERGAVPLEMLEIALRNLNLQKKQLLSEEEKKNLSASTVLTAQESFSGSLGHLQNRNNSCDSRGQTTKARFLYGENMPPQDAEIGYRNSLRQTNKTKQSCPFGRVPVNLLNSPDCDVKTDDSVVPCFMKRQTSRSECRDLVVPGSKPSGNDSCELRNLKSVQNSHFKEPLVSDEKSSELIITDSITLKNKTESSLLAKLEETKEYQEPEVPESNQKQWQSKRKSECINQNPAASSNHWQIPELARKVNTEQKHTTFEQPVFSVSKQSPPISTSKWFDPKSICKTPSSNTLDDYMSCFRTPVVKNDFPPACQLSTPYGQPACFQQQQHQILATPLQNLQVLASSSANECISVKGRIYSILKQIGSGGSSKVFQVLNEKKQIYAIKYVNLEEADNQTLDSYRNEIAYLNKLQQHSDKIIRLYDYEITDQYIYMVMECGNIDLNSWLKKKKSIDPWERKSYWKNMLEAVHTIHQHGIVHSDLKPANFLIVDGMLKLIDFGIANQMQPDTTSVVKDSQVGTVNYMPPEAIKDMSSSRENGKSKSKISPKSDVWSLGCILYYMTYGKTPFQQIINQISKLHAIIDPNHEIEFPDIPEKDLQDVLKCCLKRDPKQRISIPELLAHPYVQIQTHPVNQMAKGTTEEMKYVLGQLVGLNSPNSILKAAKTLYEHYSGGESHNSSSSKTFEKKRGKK

[2] = AUC in mouse; assay type: ADME, organism-based; settings: in vivo
[3] = tested on: COLO 205; assay: Antiproliferative activity against human COLO 205 cells assessed as reduction in cell viability incubated for 48 hrs by MTT assay; assay type: functional, cell-based; settings: COLO 205, 48 h
[4] = Half life in mouse; assay type: ADME, organism-based; settings: in vivo
[5] = tested on: MOLT-4; assay: Antiproliferative activity against human MOLT-4 cells assessed as reduction in cell growth incubated for 72 hrs by MTT assay; assay type: functional, cell-based; settings: MOLT-4, 72 h
[6] = Metabolic stability in mouse liver microsomes assessed as drug metabolism measured after 30 mins; assay type: ADME, Microsome; settings: read-out: Drug metabolism
[7] = biological target: T2, Aurora kinase A (Homo sapiens, UniProt O14965); assay: Inhibition of AURORA-A (unknown origin)
T2 sequence (O14965 whole entry): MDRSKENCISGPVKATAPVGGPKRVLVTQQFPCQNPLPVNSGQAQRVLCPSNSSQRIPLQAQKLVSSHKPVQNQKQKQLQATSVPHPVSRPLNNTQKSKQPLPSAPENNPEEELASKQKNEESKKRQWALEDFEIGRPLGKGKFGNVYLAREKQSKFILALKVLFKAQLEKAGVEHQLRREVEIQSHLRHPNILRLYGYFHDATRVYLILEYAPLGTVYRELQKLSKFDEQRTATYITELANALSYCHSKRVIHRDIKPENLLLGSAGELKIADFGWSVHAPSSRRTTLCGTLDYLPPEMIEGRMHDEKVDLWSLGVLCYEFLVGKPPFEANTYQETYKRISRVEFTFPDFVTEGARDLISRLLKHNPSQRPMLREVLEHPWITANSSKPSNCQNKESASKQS

[8] = biological target: Cyclin-dependent kinase 2 (Homo sapiens, UniProt P24941); assay: Inhibition of CDK2 (unknown origin)
[9] = tested on: OVCAR-8; assay: Anticancer activity against human OVCAR-8 cells assessed as cell growth inhibition measured after 72 hrs by DAPI staining based analysis; assay type: functional
[10] = tested on: NCI/ADR-RES; assay: Anticancer activity against human NCI-ADR-RES cells assessed as cell growth inhibition measured after 72 hrs by DAPI staining based analysis; assay type: functional
[11] = tested on: OVCAR-3; assay: Anticancer activity against human OVCAR-3 cells assessed as cell growth inhibition measured after 72 hrs by DAPI staining based analysis; assay type: functional
[12] = tested on: SK-OV-3; assay: Anticancer activity against human SK-OV-3 cells assessed as cell growth inhibition measured after 72 hrs by DAPI staining based analysis; assay type: functional
[13] = tested on: OVCAR-4; assay: Anticancer activity against human OVCAR-4 cells assessed as cell growth inhibition measured after 72 hrs by DAPI staining based analysis; assay type: functional
[14] = tested on: IGROV-1; assay: Growth inhibition of human IGROV-1 cells measured after 72 hrs by SRB method; assay type: functional
[15] = tested on: OVCAR-5; assay: Anticancer activity against human OVCAR-5 cells assessed as cell growth inhibition measured after 72 hrs by DAPI staining based analysis; assay type: functional
[16] = tested on: IGROV-1; assay: Anticancer activity against human IGROV-1 cells assessed as cell growth inhibition measured after 72 hrs by DAPI staining based analysis; assay type: functional
[17] = tested on: OVCAR-4; assay: Growth inhibition of human OVCAR-4 cells measured after 72 hrs by SRB method; assay type: functional
[18] = AUC in ICR mouse at 3 mg/kg, po and measured after 24 hrs by LC-MS/MS analysis; assay type: ADME, organism-based; settings: in vivo
[19] = Cmax in Sprague-Dawley rat at 3 mg/kg, po by LC-MS/MS analysis; assay type: ADME, organism-based; settings: in vivo
[20] = Cmax in ICR mouse at 3 mg/kg, po; assay type: ADME, organism-based; settings: in vivo
[21] = Oral bioavailability in ICR mouse at 5 mg/kg by LC-MS/MS analysis; assay type: ADME, organism-based; settings: in vivo
[22] = tested on: CAL-51; assay: Antiproliferative activity against human CAL-51 cells assessed as reduction in cell viability incubated for 72 hrs by MTT assay; assay type: functional, cell-based; settings: CAL-51, 72 h
[23] = AUC in Sprague-Dawley rat at 3 mg/kg, po by LC-MS/MS analysis; assay type: ADME, organism-based; settings: in vivo
[24] = Dose normalized AUC in Wistar rat at 1 mg/kg, po measured for 24 hrs by LC-MS/MS analysis; assay type: ADME, organism-based; settings: in vivo
[25] = Dose normalized AUC in Beagle dog at 1 mg/kg, po measured for 24 hrs by LC-MS/MS analysis; assay type: ADME, organism-based, Canis lupus familiaris; settings: in vivo
[26] = Clearance in Wistar rat at 1 mg/kg, iv measured after 24 hrs by LC-MS/MS analysis; assay type: ADME, organism-based; settings: in vivo
[27] = Clearance in Beagle dog at 0.5 mg/kg, iv measured for 24 hrs by LC-MS/MS analysis; assay type: ADME, organism-based, Canis lupus familiaris; settings: in vivo
[28] = Intrinsic clearance in human liver microsomes; assay type: ADME, Microsome

- pIC50 [1]: 9.00
Structure (SMILES): COc1cc(C(=O)N(C)C)ccc1Nc1nc(OC2CCCC2)c2cc[nH]c2n1

- pIC50 [1]: 8.06
Structure (SMILES): CN1CCC(c2ccc(Nc3ncc4c(n3)-n3ccc(C(N)=O)c3CC4)cc2)CC1

- AUC [2]: 2.23 µM·h
- pIC50 [3]: 7.00
- half-life [4]: 4.3 h
Structure (SMILES): CCC(=O)N[C@H]1CC[C@@H](n2c(=O)cc(C)c3cnc(Nc4ccc(N5CCN(C(=O)CCC#Cc6ccc7c(c6)CN(C6CCC(=O)NC6=O)C7=O)CC5)cc4OC)nc32)CC1 (some centres not stated)

- pIC50 [5]: 7.96
Structure (SMILES): COc1cc(N2CCN(C)CC2)ccc1Nc1ncc2c(n1)-n1ccc(C(=O)Nc3c(C)cccc3F)c1CC2

- AUC [2]: 2.33 µM·h
- pIC50 [3]: 6.70
- half-life [4]: 3.2 h
Structure (SMILES): CCC(=O)N[C@H]1CC[C@@H](n2c(=O)cc(C)c3cnc(Nc4ccc(N5CCN(C(=O)CCCCC#Cc6ccc7c(c6)CN(C6CCC(=O)NC6=O)C7=O)CC5)cc4OC)nc32)CC1 (some centres not stated)

- metabolised at 0.5 h [6]: 23%
- pIC50 [7]: < 4.00
Structure (SMILES): COC1CCN(C(=O)c2ccc(Nc3cc4[nH]c(C(=O)N(C)C)cc4cn3)c(Cl)c2)CC1

- metabolised at 0.5 h [6]: 28%
- pIC50 [7]: < 4.40
- pIC50 [8]: < 4.00
Structure (SMILES): CN(C)C(=O)c1cc2cnc(Nc3ccc(-c4cncn4C)cc3Cl)cc2n1C(=O)OC(C)(C)C

- GI50 [17]: 1.6 µM
Structure (SMILES): O=c1c2cc(Cl)ccc2sc2c(NCCCNCCO)nc3ccccc3c12
- TGI [9]: 3.32 µM
- TGI [10]: 3.63 µM
- TGI [11]: 3.51 µM
- TGI [12]: 3.38 µM
- TGI [13]: 3.23 µM
- GI50 [14]: 1.6 µM
- TGI [15]: 3.5 µM
- TGI [16]: 3.6 µM

- metabolised at 0.5 h [6]: 25%
- pIC50 [7]: < 4.40
Structure (SMILES): CN(C)C(=O)c1cc2cnc(Nc3ccc(S(=O)(=O)N(C)C)cc3Cl)cc2[nH]1

- metabolised at 0.5 h [6]: 48%
- pIC50 [7]: 4.64
Structure (SMILES): CN(C)C(=O)c1ccc(Nc2cc3c(cn2)cc(C(=O)N(C)C)n3C(=O)OC(C)(C)C)c(Cl)c1

- metabolised at 0.5 h [6]: 20%
- pIC50 [7]: < 4.00
Structure (SMILES): CN(C)C(=O)c1cc2cnc(Nc3ccc(-c4cnn(C)c4)cc3Cl)cc2[nH]1

Structure (SMILES): C[C@H](Oc1cc(C(=O)N(C)C)ccc1Nc1nc(O[C@H]2CC[C@@](C)(O)CC2)c2c(Cl)c[nH]c2n1)C(F)(F)F
- AUC at 24 h [18]: 22.5 µM·h
- Cmax [19]: 4.35 µM
- Cmax [20]: 5.2 µM
- pIC50 [1]: 9.15
- bioavailability [21]: 60%
- pIC50 [22]: 8.00
- AUC [23]: 26.3 µM·h

- pIC50 [5]: 7.96
Structure (SMILES): COc1cc(N2CCN(C)CC2)ccc1Nc1ncc2c(n1)-n1ccc(C(=O)Nc3c(C)cccc3C)c1CC2

- AUC/dose [24]: 2.4 kg·h/L
- AUC/dose [25]: 2.5 kg·h/L
- clearance [26]: 8.67 mL/min/kg
- clearance [27]: 7.33 mL/min/kg
Structure (SMILES): COc1ccc(Oc2cc(NCCC(F)(F)F)c3ncc(-c4ccc(C(=O)NC5CC5)c(C)c4)n3n2)c(F)c1F [BAY-1217389]

- CLH [28]: 8 µL/min/µg
Structure (SMILES): CCOc1cc(-c2nncn2C)ccc1Nc1ncc2cc(C)nc(NCC(C)(C)C)c2n1 [BOS-172722]

Reference: ChEMBL document CHEMBL5584232, “Hijacking monopolar spindle 1 (MPS1) for various cancer types by small molecular inhibitors: Deep insights from a decade of research and patents” (Eur J Med Chem, 2024)
